# Measured values as given in patent publication US8367835B2, “Cyclic amine-1-carboxylic acid ester derivative and pharmaceutical composition containing the same” (Dainippon Sumitomo Pharma Co., Ltd., priority 2008, dated 2013).
# Like-named read-outs stand apart in the source and are kept apart here.
# Experiments:
# TRPV1 = target: T1, TRPV1 (Rattus norvegicus, UniProt O35433); test: TRPV1 agonist activity by intracellular calcium level (FLIPR method); type: cell-based; conditions: rat dorsal root ganglion primary culture cells
# T1 construct: using cultured rat dorsal root ganglion cells which express TRPV1 abundantly; endogenous in cells; host or cells: primary culture of dorsal root ganglion cells from 7 day old Wistar rat
# From the text: The test is to measure the elevation of intracellular calcium level as the indicator of TRPV1 agonist activity of a test compound using cultured rat dorsal root ganglion cells which express TRPV1 abundantly, and carried out in accordance with the method of Jerman et al. (Jerman, J. C. et al., Comparison of effects of anandamide at recombinant and endogenous rat vanilloid receptors. Br J Anaesth, 2002. 89(6): p. 882-7). More specifically, the dorsal root ganglion was removed from a 7 day old Wistar rat, and the cells were isolated by collagenase-trypsin treatment. Subsequently, the primary cells was cultured in a CO2 incubator controlled at 5% CO2 and 37° C. for 2 days. The culture medium used was Neurobasal™ medium supplemented with L-glutamine, nerve growth factor, N-2-Supplement, Penicillin-Streptomycin, 5-Fluoro-2′-deoxyuridine (culture day 1 only) were added to.
# FLIPR^TETRA system (Molecular Devices Corp.) was used to measure the intracellular calcium concentration. As an indicator of TRPV1 agonistic activity, the fluorescence intensity elevation was monitored when a test compound is applied to the rat dorsal root ganglion primary culture cells loaded with a calcium-sensitive fluorescent reagent.
# [1] = tested on: mechanical hyperalgesia in a neuropathic pain model (rat Chung model); test: Analgesic effect: von Frey filament test using rat Chung model, transdermal administration; type: in vivo; conditions: 0.1% formulation applied transdermally to plantar surface of left hindlimb once a day for 2 weeks; measured on the day after last administration; pre-administration value = 100%
# Description: The present test is to measure the analgesic effect based on the improvement level of the mechanical hyperalgesia in a neuropathic pain model as the indicator by transdermally administering the compound of the present invention and was carried out in accordance with the method of Kim and Chung [Pain, 50, 355-363 (1992)] or the method of Tsuda et al. [Nature, 424, 778-783, 2003].
# Specifically, using Jcl: Wistar male rat (7 to 9 rats/group, 5 weeks of age at the time of surgery), spinal nerves were injured to induce hyperalgesia and the withdrawal threshold was measured using the von Frey filament. In the surgery, under Pentobarbital anesthesia, the left L5 spinal nerve was exposed, ligated near the spinal cord using a silk suture (5-0) and transected just peripheral to the ligation. After suturing the incision and keeping the rats for 2 weeks, the rats were subjected to the von Frey filament test. The measurement of the mechanical hyperalgesia was carried out by applying von Frey filaments (1.0, 2.0, 4.0, 8.0, 15.0 g) to the plantar surface of the left hindlimb, and the filament intensity at which 50% or higher withdrawal behavior was observed was defined as the withdrawal threshold.
# After dissolving the test compounds in a mixture of Tween 80 and ethanol, the obtained solution was mixed with a hydrophilic ointment to prepare a formulation having a concentration of 0.1%. The withdrawal threshold before administering the test compound was measured to define the pre-administration value (100%). Thereafter, once a day, for 2 weeks, the formulation having a concentration of 0.1% was transdermally administered (applied) to the plantar surface of the left hindlimb, the von Frey filament test was carried out on the following day of the last administration to measure the post-administration value. Further, the same formulation as above but free of the test compound was prepared as a vehicle control and the same test was carried out.
# The analgesic effect is a relative ratio when a test compound pre-administration value calculated using the following numerical formula is 100%. The pre-administration withdrawal threshold was 3.3±0.1 g (119 cases) (the withdrawal threshold of sham-operated rat was 10 to 15 g). %=(test compound post-administration withdrawal threshold value/pre-administration withdrawal threshold value)×100
# [2] = read-out: Value (%) when fluorescence intensity for capsaicin (1 μM) is 100%, 1 μM
# [3] = 1 μM, read-out: Value (%) when fluorescence intensity for capsaicin (1 μM) is 100%
# T1 sequence (O35433 whole entry): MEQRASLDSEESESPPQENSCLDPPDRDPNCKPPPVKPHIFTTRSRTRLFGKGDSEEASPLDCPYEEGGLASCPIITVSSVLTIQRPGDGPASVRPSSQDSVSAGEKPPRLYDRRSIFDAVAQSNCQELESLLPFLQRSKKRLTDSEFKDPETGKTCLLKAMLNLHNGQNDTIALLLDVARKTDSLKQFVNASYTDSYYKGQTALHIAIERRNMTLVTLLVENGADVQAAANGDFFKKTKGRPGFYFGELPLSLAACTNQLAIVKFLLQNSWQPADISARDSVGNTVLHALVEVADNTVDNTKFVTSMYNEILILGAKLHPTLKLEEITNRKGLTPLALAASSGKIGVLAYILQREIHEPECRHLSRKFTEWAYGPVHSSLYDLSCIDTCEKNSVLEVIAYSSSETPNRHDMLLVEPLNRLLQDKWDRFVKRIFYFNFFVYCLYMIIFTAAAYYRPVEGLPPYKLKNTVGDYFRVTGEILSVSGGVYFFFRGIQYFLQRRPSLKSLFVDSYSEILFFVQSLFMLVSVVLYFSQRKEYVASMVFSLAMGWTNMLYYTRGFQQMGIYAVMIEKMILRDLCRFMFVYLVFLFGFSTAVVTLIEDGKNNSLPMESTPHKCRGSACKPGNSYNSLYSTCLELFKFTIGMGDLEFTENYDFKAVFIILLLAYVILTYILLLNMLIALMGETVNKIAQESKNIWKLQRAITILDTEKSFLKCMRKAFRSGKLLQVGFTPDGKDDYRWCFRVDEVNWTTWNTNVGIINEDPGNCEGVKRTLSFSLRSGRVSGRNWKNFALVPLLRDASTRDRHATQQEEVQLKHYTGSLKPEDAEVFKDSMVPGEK
Structure (SMILES),Emax at 1 µM (TRPV1; [3]) [%],also measured
COc1cc(CNC(=O)C2CCN(C(=O)O[C@@H]3CCCC[C@@H]3C)CC2)ccc1O [Example 11],–,Emax at 1 µM (TRPV1; [2]): 94%
COc1cc(CNC(=O)C2CN(C(=O)O[C@@H]3C[C@H](C)CC[C@H]3C(C)C)C2)ccc1O [Example 20],73,–
COc1cc(CNC(=O)C2CN(C(=O)O[C@H]3CC[C@H](C(C)(C)C)CC3)C2)ccc1O [Example 17],–,Emax at 1 µM (TRPV1; [2]): 82%
"COc1cc(CNC(=O)C2CCN(C(=O)O[C@H]3CCCC[C@@H]3C)CC2)ccc1O (relative stereo) [Example 47, (1S*,2S*)-2-methylcyclohexyl 4-(4-hydroxy-3-methoxybenzylcarbamoyl)-piperidine-1-carboxylate]",–,Emax at 1 µM (TRPV1; [2]): 85%
CCC1(CC)CCC(OC(=O)N2CC[C@H](C(=O)NCc3ccc(O)c(OC)c3)C2)CC1 [Example 29],83,–
"COc1cc(CNC(=O)C2CCN(C(=O)O[C@H]3CCCC[C@H]3C)CC2)ccc1O [Example 38, (1S,2R)-2-methylcyclohexyl 4-(4-hydroxy-3-methoxybenzylcarbamoyl)-piperidine-1-carboxylate]",–,% to pre-administration value (withdrawal threshold) [1]: 243%; Emax at 1 µM (TRPV1; [2]): 97%
CCC1(CC)CCC(OC(=O)N2CC[C@@H](C(=O)NCc3ccc(O)c(OC)c3)C2)CC1 [Example 33],73,–
"COc1cc(CNC(=O)C2CN(C(=O)Oc3ccccc3C(C)C)C2)ccc1O [Example 45, 2-isopropylphenyl 3-(4-hydroxy-3-methoxybenzylcarbamoyl)-azetidine-1-carboxylate]",72,–
COc1cc(CNC(=O)C2CCN(C(=O)O[C@@H]3CCC[C@H](C)C3)CC2)ccc1O [Example 9],83,–
COc1cc(CNC(=O)C2CCN(C(=O)O[C@H]3CC[C@@H](C(C)(C)C)CC3)CC2)ccc1O [Example 5],84,–
"CC[C@H]1CC[C@@H](OC(=O)N2CCC(C(=O)NCc3ccc(O)c(OC)c3)CC2)CC1 [Example 1, cis-4-ethylcyclohexyl 4-(4-hydroxy-3-methoxybenzylcarbamoyl)-piperidine-1-carboxylate]",–,% to pre-administration value (withdrawal threshold) [1]: 220%; Emax at 1 µM (TRPV1; [2]): 87%
CC[C@H]1CC[C@@H](OC(=O)N2CC[C@@H](C(=O)NCc3ccc(O)c(OC)c3)C2)CC1 [Example 32],78,–
COc1cc(CNC(=O)C2CN(C(=O)O[C@H]3CCC[C@H](C)C3)C2)ccc1O [Example 18],86,–
"COc1cc(CNC(=O)C2CCN(C(=O)O[C@H]3CCC[C@H](C)C3)CC2)ccc1O [Example 36, (1S,3S)-3-methylcyclohexyl 4-(4-hydroxy-3-methoxybenzylcarbamoyl)-piperidine-1-carboxylate]",–,% to pre-administration value (withdrawal threshold) [1]: 209%; Value (%) when fluorescence intensity for capsaicin (1 μM) is 100% (TRPV1; 1 μM): 104%
COc1cc(CNC(=O)C2CCN(C(=O)O[C@H]3CC[C@H](C)CC3)CC2)ccc1O [Example 4],80,–
CCC1(CC)CCC(OC(=O)N2CCC(C(=O)NCc3ccc(O)c(OC)c3)CC2)CC1 [Example 7],90,–
"COc1cc(CNC(=O)[C@@H]2CCN(C(=O)OC3CCC(C)(C)CC3)C2)ccc1O [Example 31, 4,4-dimethylcyclohexyl (R)-3-(4-hydroxy-3-methoxybenzylcarbamoyl)-pyrrolidine-1-carboxylate]",68,–
"COc1cc(CNC(=O)C2CCN(C(=O)Oc3ccccc3C(C)C)CC2)ccc1O [Example 41, 2-isopropylphenyl 4-(4-hydroxy-3-methoxybenzylcarbamoyl)-piperidine-1-carboxylate]",83,–
CC[C@H]1CC[C@@H](OC(=O)N2CC(C(=O)NCc3ccc(O)c(OC)c3)C2)CC1 [Example 15],83,–
CCCC[C@H]1CC[C@@H](OC(=O)N2CC(C(=O)NCc3ccc(O)c(OC)c3)C2)CC1 [Example 22],80,–

# Second part, led by results:
Emax at 1 µM (TRPV1; [3]) [%],Structure (SMILES),also measured
77,CCCC[C@H]1CC[C@H](OC(=O)N2CC(C(=O)NCc3ccc(O)c(OC)c3)C2)CC1 [Example 23],–
82,"C=C(C)[C@@H]1CC[C@@H](C)C[C@H]1OC(=O)N1CC(C(=O)NCc2ccc(O)c(OC)c2)C1 [Example 26, (1R,2S,5R)-2-isopropenyl-5-methylcyclohexyl 3-(4-hydroxy-3-methoxybenzylcarbamoyl)-azetidine-1-carboxylate]",–
92,COc1cc(CNC(=O)C2CCN(C(=O)O[C@@H]3C[C@H](C)C[C@H](C)C3)CC2)ccc1O [Example 12],–
84,COc1cc(CNC(=O)C2CN(C(=O)OC3CC(C)(C)CC(C)(C)C3)C2)ccc1O [Example 19],–
86,"COc1cc(CNC(=O)C2CCN(C(=O)O[C@@H]3CCC[C@@H](C)C3)CC2)ccc1O [Example 35, (1R,3R)-3-methylcyclohexyl 4-(4-hydroxy-3-methoxybenzylcarbamoyl)-piperidine-1-carboxylate]",% to pre-administration value (withdrawal threshold) [1]: 183%
78,COc1cc(CNC(=O)[C@H]2CCN(C(=O)O[C@H]3CC[C@@H](C(C)(C)C)CC3)C2)ccc1O [Example 30],–
68,COc1cc(CNC(=O)C2CCN(C(=O)Oc3cccc(C(C)C)c3)CC2)ccc1O [Example 43],–
92,COc1cc(CNC(=O)C2CCN(C(=O)O[C@H]3CCC[C@H](C)C3)CC2)ccc1O [Example 10],–
86,"COc1cc(CNC(=O)[C@H]2CCN(C(=O)OC3CCC(C)(C)CC3)C2)ccc1O [Example 27, 4,4-dimethylcyclohexyl (S)-3-(4-hydroxy-3-methoxybenzylcarbamoyl)-pyrrolidine-1-carboxylate]",–
80,COc1cc(CNC(=O)C2CCN(C(=O)O[C@H]3CC[C@H](C(C)(C)C)CC3)CC2)ccc1O [Example 6],–
84,COc1cc(CNC(=O)C2CN(C(=O)O[C@H]3CC[C@@H](C(C)C)CC3)C2)ccc1O [Example 24],–
81,"CC[C@H]1CCCC[C@H]1OC(=O)N1CCC(C(=O)NCc2ccc(O)c(OC)c2)CC1 (relative stereo) [Example 13, cis-2-ethylcyclohexyl 4-(4-hydroxy-3-methoxybenzylcarbamoyl)-piperidine-1-carboxylate]",–
71,COc1cc(CNC(=O)C2CN(C(=O)O[C@H]3CC[C@H](C(C)C)CC3)C2)ccc1O [Example 25],–
77,"COc1cc(CNC(=O)C2CCN(C(=O)OC3CCCCC3)CC2)ccc1O [Example 48, cyclohexyl 4-(4-hydroxy-3-methoxybenzylcarbamoyl)-piperidine-1-carboxylate]",–
80,COc1cc(CNC(=O)C2CCN(C(=O)O[C@H]3CC[C@@H](C)CC3)CC2)ccc1O [Example 3],–
68,"COc1cc(CNC(=O)C2CN(C(=O)Oc3ccccc3C3CCCC3)C2)ccc1O [Example 46, 2-cyclopentylphenyl 3-(4-hydroxy-3-methoxybenzylcarbamoyl)-azetidine-1-carboxylate]",–
85,COc1cc(CNC(=O)C2CN(C(=O)O[C@H]3C[C@H](C)CC[C@H]3C(C)C)C2)ccc1O [Example 21],–
72,COc1cc(CNC(=O)[C@@H]2CCN(C(=O)O[C@H]3CC[C@@H](C(C)(C)C)CC3)C2)ccc1O [Example 34],–
81,CC[C@H]1CC[C@@H](OC(=O)N2CC[C@H](C(=O)NCc3ccc(O)c(OC)c3)C2)CC1 [Example 28],–
72,COc1cc(CNC(=O)C2CCN(C(=O)Oc3ccccc3C3CCCC3)CC2)ccc1O [Example 42],–
91,COc1cc(CNC(=O)C2CCN(C(=O)OC3CCCCCC3)CC2)ccc1O [Example 39],–
91,COc1cc(CNC(=O)C2CCN(C(=O)OCC3CCCCC3)CC2)ccc1O [Example 40],–
83,COc1cc(CNC(=O)C2CCN(C(=O)Oc3ccc(C(C)C)cc3)CC2)ccc1O [Example 44],–
